In ChEMBL document CHEMBL4229536, “In vitro and in vivo pharmacokinetic and pharmacodynamic study of MBRI-001, a deuterium-substituted plinabulin derivative as a potent anti-cancer agent” (Bioorg Med Chem, 2018):

Assays:
Mus musculus [1] = assay: Toxicity in nude mouse xenografted with human NCI-H460 cells assessed as body weight at 3 mg/kg, iv administered once in every 2 days for 14 consecutive days cotreated with 25 mg/kg gefitinib once daily for 14 consecutive days (reference value: 20.6 +/- 1.5 g); assay type: organism-based; details: in vivo, 48 h
Mus musculus [2] = assay: Toxicity in Balb/c mouse assessed as decrease in body weight at 10 to 15 mg/kg, iv administered three times in a day every 2 days for 15 consecutive days; assay type: organism-based; details: in vivo, 48 h
[3] = Stability in rat plasma at 1 uM after 90 mins by LC-MS/MS analysis; assay type: ADME, cell-free; details: read-out: Stability
[4] = Drug uptake in Wistar rat kidney at 6 mg/kg, iv measured after 1 hr; assay type: ADME, organism-based; details: in vivo
[5] = Drug excretion in Wistar rat urine at 4 mg/kg, iv measured after 8 hrs; assay type: ADME, organism-based; details: read-out: Drug excretion
[6] = Drug uptake in Wistar rat lungs at 6 mg/kg, iv measured after 12 hrs; assay type: ADME, organism-based, Lung; details: in vivo
[7] = Drug uptake in Wistar rat kidney at 6 mg/kg, iv measured after 8 hrs; assay type: ADME, organism-based; details: in vivo
[8] = MRTlast in Wistar rat at 8 mg/kg, iv; assay type: ADME, organism-based; details: in vivo
[9] = Drug excretion in Wistar rat urine at 4 mg/kg, iv measured after 12 hrs; assay type: ADME, organism-based; details: read-out: Drug excretion
[10] = Drug excretion in Wistar rat feces at 4 mg/kg, iv measured after 108 hrs; assay type: ADME, organism-based; details: faeces, read-out: Drug excretion
[11] = Stability in rat liver microsomes at 50 uM after 90 mins in presence of NADPH by LC-MS/MS analysis; assay type: ADME, microsome; details: read-out: Stability
[12] = Drug uptake in Wistar rat lungs at 6 mg/kg, iv measured after 1 hr; assay type: ADME, organism-based, Lung; details: in vivo
[13] = Apparent volume of distribution in Wistar rat at 4 mg/kg, iv; assay type: ADME, organism-based; details: in vivo, read-out: Vz
[14] = Drug uptake in Wistar rat large intestine at 6 mg/kg, iv measured after 1 hr; assay type: ADME, organism-based; details: in vivo
[15] = Drug uptake in Wistar rat liver at 6 mg/kg, iv measured after 12 hrs; assay type: ADME, organism-based; details: in vivo
[16] = AUClast in Wistar rat at 4 mg/kg, iv; assay type: ADME, organism-based; set-up: dose 4 mg/kg, route intravenous, time 0 - last; details: in vivo
Mus musculus [17] = assay: Toxicity in Balb/c mouse assessed as mortality at 20 mg/kg, iv administered three times in a day every 2 days for 15 consecutive days; assay type: organism-based; details: in vivo, 48 h
NCI-H460 [18] = assay: Antitumor activity against human NCI-H460 cells xenografted in nude mouse assessed as inhibition of tumor volume at 6 mg/kg, iv administered once in every 2 days for 14 consecutive days relative to control; assay type: functional; details: 48 h
[19] = Drug uptake in Wistar rat heart at 6 mg/kg, iv measured after 4 hrs; assay type: ADME, organism-based; details: in vivo
[20] = Half life in rat liver microsomes at 50 uM in presence of NADPH by LC-MS/MS analysis; assay type: ADME, microsome
[21] = AUC (0 to infinity) in Wistar rat at 4 mg/kg, iv; assay type: ADME, organism-based; set-up: dose 4 mg/kg, time infinity, route intravenous; details: in vivo
[22] = Stability in rat liver microsomes at 50 uM after 120 mins in presence of NADPH by LC-MS/MS analysis; assay type: ADME, microsome; details: read-out: Stability
[23] = Drug uptake in Wistar rat liver at 6 mg/kg, iv measured after 0.5 hrs; assay type: ADME, organism-based; details: in vivo
[24] = Drug excretion in Wistar rat feces at 4 mg/kg, iv measured after 12 hrs; assay type: ADME, organism-based; details: faeces, read-out: Drug excretion
[25] = Drug uptake in Wistar rat heart at 6 mg/kg, iv measured after 1 hr; assay type: ADME, organism-based; details: in vivo
Cytochrome P450 2C9 = Cytochrome P450 2C9 (Homo sapiens, UniProt P11712); assay: Inhibition of CYP2C9 in human liver microsomes preincubated for 10 mins followed by NADPH addition measured after 10 mins by LC-MS/MS analysis; assay type: ADME
Sequence of Cytochrome P450 2C9 (P11712 whole entry): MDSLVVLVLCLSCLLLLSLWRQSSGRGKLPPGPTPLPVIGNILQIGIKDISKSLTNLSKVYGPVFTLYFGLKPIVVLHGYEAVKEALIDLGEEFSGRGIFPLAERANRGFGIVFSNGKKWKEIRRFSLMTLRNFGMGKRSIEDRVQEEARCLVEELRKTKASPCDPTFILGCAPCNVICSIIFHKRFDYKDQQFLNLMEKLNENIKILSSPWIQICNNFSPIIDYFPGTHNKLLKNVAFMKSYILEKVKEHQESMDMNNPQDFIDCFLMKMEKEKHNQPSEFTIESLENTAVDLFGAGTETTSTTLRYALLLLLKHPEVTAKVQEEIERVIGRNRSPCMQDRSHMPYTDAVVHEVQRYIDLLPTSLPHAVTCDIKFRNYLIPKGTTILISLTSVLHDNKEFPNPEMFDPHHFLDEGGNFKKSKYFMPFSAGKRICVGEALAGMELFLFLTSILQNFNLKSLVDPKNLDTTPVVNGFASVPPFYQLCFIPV

[26] = Drug excretion in Wistar rat urine at 4 mg/kg, iv measured after 108 hrs; assay type: ADME, organism-based; details: read-out: Drug excretion
[27] = Drug uptake in Wistar rat brain at 6 mg/kg, iv measured after 4 hrs; assay type: ADME, organism-based; details: in vivo
[28] = Drug uptake in Wistar rat liver at 6 mg/kg, iv measured after 1 hr; assay type: ADME, organism-based; details: in vivo
NCI-H460 [29] = assay: Antitumor activity against human NCI-H460 cells xenografted in nude mouse assessed as inhibition of tumor weight at 3 mg/kg, iv administered once in every 2 days for 14 consecutive days relative to control; assay type: functional; details: 48 h
[30] = Drug uptake in Wistar rat brain at 6 mg/kg, iv measured after 1 hr; assay type: ADME, organism-based; details: in vivo
[31] = Drug uptake in Wistar rat kidney at 6 mg/kg, iv measured after 12 hrs; assay type: ADME, organism-based; details: in vivo
Rattus norvegicus = assay: Clearance in Wistar rat at 8 mg/kg, iv; assay type: ADME, organism-based; details: in vivo
[32] = Drug uptake in Wistar rat small intestine at 6 mg/kg, iv measured after 12 hrs; assay type: ADME, organism-based; details: in vivo
[33] = Stability in rat liver microsomes at 50 uM after 20 mins in presence of NADPH by LC-MS/MS analysis; assay type: ADME, microsome; details: read-out: Stability
[34] = Stability in rat plasma at 1 uM after 60 mins by LC-MS/MS analysis; assay type: ADME, cell-free; details: read-out: Stability
[35] = Drug excretion in Wistar rat urine at 4 mg/kg, iv measured after 2 hrs; assay type: ADME, organism-based; details: read-out: Drug excretion
[36] = Drug uptake in Wistar rat brain at 6 mg/kg, iv measured after 0.5 hrs; assay type: ADME, organism-based; details: in vivo
[37] = Stability in rat plasma at 1 uM after 20 mins by LC-MS/MS analysis; assay type: ADME, cell-free; details: read-out: Stability
[38] = Drug excretion in Wistar rat urine at 4 mg/kg, iv measured after 72 hrs; assay type: ADME, organism-based; details: read-out: Drug excretion
NCI-H460 [39] = assay: Antitumor activity against human NCI-H460 cells xenografted in nude mouse assessed as inhibition of tumor weight at 6 mg/kg, iv administered once in every 2 days for 14 consecutive days relative to control; assay type: functional; details: 48 h
[40] = Drug uptake in Wistar rat small intestine at 6 mg/kg, iv measured after 4 hrs; assay type: ADME, organism-based; details: in vivo
[41] = Drug excretion in Wistar rat urine at 4 mg/kg, iv measured after 36 hrs; assay type: ADME, organism-based; details: read-out: Drug excretion
[42] = Clearance in Wistar rat at 4 mg/kg, iv; assay type: ADME, organism-based; details: in vivo
[43] = Drug excretion in Wistar rat feces at 4 mg/kg, iv measured after 24 hrs; assay type: ADME, organism-based; details: faeces, read-out: Drug excretion
[44] = Drug uptake in Wistar rat small intestine at 6 mg/kg, iv measured after 8 hrs; assay type: ADME, organism-based; details: in vivo
[45] = Apparent volume of distribution in Wistar rat at 8 mg/kg, iv; assay type: ADME, organism-based; details: in vivo, read-out: Vz
[46] = Drug excretion in Wistar rat feces at 4 mg/kg, iv measured after 72 hrs; assay type: ADME, organism-based; details: faeces, read-out: Drug excretion
[47] = Drug uptake in Wistar rat heart at 6 mg/kg, iv measured after 8 hrs; assay type: ADME, organism-based; details: in vivo
[48] = Drug uptake in Wistar rat large intestine at 6 mg/kg, iv measured after 12 hrs; assay type: ADME, organism-based; details: in vivo
Mus musculus [49] = assay: Toxicity in nude mouse xenografted with human NCI-H460 cells assessed as death at 3 to 9 mg/kg, iv administered once in every 2 days for 14 consecutive days; assay type: organism-based; details: in vivo, 48 h
[50] = Drug uptake in Wistar rat spleen at 6 mg/kg, iv measured after 12 hrs; assay type: ADME, organism-based; details: in vivo
Mus musculus [51] = assay: Toxicity in Balb/c mouse assessed as mortality at 10 to 15 mg/kg, iv administered three times in a day every 2 days for 15 consecutive days; assay type: organism-based; details: in vivo, 48 h
[52] = Stability in rat plasma at 1 uM after 40 mins by LC-MS/MS analysis; assay type: ADME, cell-free; details: read-out: Stability
[53] = Drug uptake in Wistar rat heart at 6 mg/kg, iv measured after 12 hrs; assay type: ADME, organism-based; details: in vivo

Question: Which Activity (Mus musculus [1]) does the source give for `[2H]/C(c1nc[nH]c1C(C)(C)C)=c1/[nH]c(=O)/c(=C/c2ccccc2)[nH]c1=O` here?
Answer: 19.8 g

Question: And the Activity (Mus musculus [2])?
Answer: Non-Toxic

Question: And the remaining at 1.5 h, 1 µM [3]?
Answer: 99.3%

Question: And the Drug uptake [4]?
Answer: 6768.5 ng/mL/g

Question: What about the dose excreted at 8 h [5] of the same compound?
Answer: 0.13%

Question: What about the Drug uptake [6] of the same compound?
Answer: 2023.8 ng/mL/g

Question: And the Drug uptake [7]?
Answer: 636.5 ng/mL/g

Question: And the MRT last [8]?
Answer: 57.6 min

Question: And the dose excreted at 12 h [9]?
Answer: 0.14%

Question: And the dose excreted at 108 h [10]?
Answer: 6.83%

Question: And the remaining at 1.5 h, 50 µM [11]?
Answer: 39.9%

Question: What about the Drug uptake [12] of the same compound?
Answer: 158342.2 ng/mL/g

Question: And the Vd [13]?
Answer: 16.4 L/kg

Question: What about the Drug uptake [14] of the same compound?
Answer: 1421.7 ng/mL/g

Question: What about the Drug uptake [15] of the same compound?
Answer: 431.7 ng/mL/g

Question: What about the AUC(0-t) [16] of the same compound?
Answer: 1330 ng·h/mL

Question: And the Activity (Mus musculus [17])?
Answer: Toxic

Question: What about the inhibition in vivo at 6 mg/kg (NCI-H460 [18]) of the same compound?
Answer: 56.9%

Question: And the Drug uptake [19]?
Answer: 567.3 ng/mL/g

Question: And the t1/2 [20]?
Answer: 84.88 min

Question: What about the AUC(0-inf) [21] of the same compound?
Answer: 1330 ng·h/mL

Question: And the remaining at 2 h, 50 µM [22]?
Answer: 31.1%

Question: What about the Drug uptake [23] of the same compound?
Answer: 8281 ng/mL/g

Question: What about the dose excreted at 12 h [24] of the same compound?
Answer: 0.12%

Question: And the Drug uptake [25]?
Answer: 3836.3 ng/mL/g

Question: And the IC50 (Cytochrome P450 2C9)?
Answer: 560 nM

Question: And the dose excreted at 108 h [26]?
Answer: 0.67%

Question: What about the Drug uptake [27] of the same compound?
Answer: 166.5 ng/mL/g

Question: And the Drug uptake [28]?
Answer: 8791.2 ng/mL/g

Question: And the inhibition in vivo at 3 mg/kg (NCI-H460 [29])?
Answer: 43%

Question: What about the Drug uptake [30] of the same compound?
Answer: 561 ng/mL/g

Question: What about the Drug uptake [31] of the same compound?
Answer: 175.1 ng/mL/g

Question: What about the CL (Rattus norvegicus) of the same compound?
Answer: 64.617 mL/min/kg

Question: What about the Drug uptake [32] of the same compound?
Answer: 36.1 ng/mL/g

Question: And the remaining at 20 min, 50 µM [33]?
Answer: 74.8%

Question: What about the remaining at 1 h, 1 µM [34] of the same compound?
Answer: 94.3%

Question: And the dose excreted at 2 h [35]?
Answer: 0.05%

Question: And the Drug uptake [36]?
Answer: 1756.2 ng/mL/g

Question: What about the remaining at 20 min, 1 µM [37] of the same compound?
Answer: 95.8%

Question: And the dose excreted at 72 h [38]?
Answer: 0.5%

Question: What about the inhibition in vivo at 6 mg/kg (NCI-H460 [39]) of the same compound?
Answer: 49.5%

Question: And the Drug uptake [40]?
Answer: 336.9 ng/mL/g

Question: What about the dose excreted at 36 h [41] of the same compound?
Answer: 0.23%

Question: And the clearance [42]?
Answer: 71.4 mL/min/kg

Question: What about the dose excreted at 24 h [43] of the same compound?
Answer: 5.65%

Question: What about the Drug uptake [44] of the same compound?
Answer: 160 ng/mL/g

Question: And the Vd [45]?
Answer: 16.2 L/kg

Question: What about the dose excreted at 72 h [46] of the same compound?
Answer: 6.23%

Question: What about the Drug uptake [47] of the same compound?
Answer: 88 ng/mL/g

Question: And the Drug uptake [48]?
Answer: 381 ng/mL/g

Question: And the Activity (Mus musculus [49])?
Answer: Non-Toxic

Question: What about the Drug uptake [50] of the same compound?
Answer: 287.3 ng/mL/g

Question: What about the Activity (Mus musculus [51]) of the same compound?
Answer: Non-Toxic

Question: What about the remaining at 40 min, 1 µM [52] of the same compound?
Answer: 95.5%

Question: And the Drug uptake [53]?
Answer: 54.7 ng/mL/g
